Data on nine molecules can be found in US20250002471A1 (Gilead Sciences, Inc., priority 2020, published 2025).

Assay [1] has as its target T1, TLR7 (Homo sapiens, UniProt Q9NYK1).
T1 construct: lymphocytes, monocytes and dendritic cells that express TLR7, TLR8 and TLR9; endogenous in cells; host or cells: human PBMCs from healthy donors
T1 sequence (Q9NYK1 27-1049): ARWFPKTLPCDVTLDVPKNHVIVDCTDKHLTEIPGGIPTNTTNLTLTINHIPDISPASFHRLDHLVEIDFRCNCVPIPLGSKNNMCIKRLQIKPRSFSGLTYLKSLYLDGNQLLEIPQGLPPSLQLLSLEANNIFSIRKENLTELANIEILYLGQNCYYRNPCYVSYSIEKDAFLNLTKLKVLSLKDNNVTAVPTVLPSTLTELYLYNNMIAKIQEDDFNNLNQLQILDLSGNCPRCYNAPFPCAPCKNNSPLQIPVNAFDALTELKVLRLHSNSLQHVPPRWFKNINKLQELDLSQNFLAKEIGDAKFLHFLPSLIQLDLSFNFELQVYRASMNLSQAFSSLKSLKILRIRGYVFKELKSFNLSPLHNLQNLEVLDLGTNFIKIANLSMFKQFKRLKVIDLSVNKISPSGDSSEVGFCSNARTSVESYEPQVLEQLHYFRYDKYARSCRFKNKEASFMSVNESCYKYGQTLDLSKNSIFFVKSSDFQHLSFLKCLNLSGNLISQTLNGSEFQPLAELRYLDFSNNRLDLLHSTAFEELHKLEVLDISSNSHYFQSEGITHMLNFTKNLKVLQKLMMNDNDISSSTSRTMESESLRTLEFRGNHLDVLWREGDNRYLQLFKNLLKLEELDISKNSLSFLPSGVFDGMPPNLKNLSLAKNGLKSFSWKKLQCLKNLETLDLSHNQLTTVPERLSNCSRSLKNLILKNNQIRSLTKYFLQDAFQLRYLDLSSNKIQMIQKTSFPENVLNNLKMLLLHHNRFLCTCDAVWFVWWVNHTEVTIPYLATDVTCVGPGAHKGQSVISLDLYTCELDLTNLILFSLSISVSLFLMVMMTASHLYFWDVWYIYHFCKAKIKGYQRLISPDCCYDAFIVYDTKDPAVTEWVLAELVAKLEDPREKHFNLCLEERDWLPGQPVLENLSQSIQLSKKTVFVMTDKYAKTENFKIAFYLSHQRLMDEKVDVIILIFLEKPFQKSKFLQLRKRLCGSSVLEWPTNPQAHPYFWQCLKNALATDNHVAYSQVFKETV
Description: Human PBMC cell-based assay, TLR7 agonist GS-986 stimulation, cytokine (IL-6 and IFNα) readout. Conditions: human PBMCs, read-out: TLR-7 EC50. In a few lines: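 Cryopreserved healthy-donor PBMCs (100,000 cells/well, RPMI-1640 + 10% FBS) preincubated 1 h at 37 °C with antagonist (10-point dose response), then stimulated 6 h with GS-986 (400 nM final, TLR7) or ODN-2216 (3 μM final, TLR9). Supernatant IL-6 and IFNα measured by electrochemiluminescence immunoassay; EC50 from sigmoidal fit.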

The target in assay [2] is cloned hERG potassium channel encoded by the KCNH2 gene (Homo sapiens, UniProt Q12809). The experiment in a line: hERG FASTPatch assay (QPatch patch clamp, HEK293T cells). Conditions: HEK293T cells, 1, 3, 10 and 30 uM, room temperature; Table 27. It is filed as cell-based. The procedure:
The FASTPatch® Assay (Charles River) was used to examine the in vitro effects of the compounds provided herein on the cloned hERG potassium channel encoded by the KCNH2 gene and stably expressed in HEK293T cells. Vehicle, test and control article formulations were prepared by diluting DMSO stock solutions in HB-PS (HEPES-buffered physiological saline solution) and were delivered to cells via the QPatch robot pipetting system to a final concentration of 0.3% DMSO. Test compound final concentrations of 1, 3, 10 and 30 uM were applied to cells (n >3, where n=the number of cells/concentration) in ascending order in at least three minute intervals separated by solution exchange. The positive control, 50 nM cisparide, was applied in the same manner. Cell membrane currents were recorded at room temperature with up to 48 parallel patch clamp amplifiers in the QPatch HT® or QPatch HTX® system, and only cells with validated whole-cell recordings (seal resistance >200 MQ and leak current <25% channel current) were used. Onset and block of hERG current was measured using a stimulus voltage pattern consisting of a 500 ms prepulse to −40 mV, a 2-second activating pulse to +40 mV, followed by a 2-second test pulse to −40 mV. The pulse pattern was repeated continuously at 10-second intervals from a holding potential of −80 mV. % Block={1-1/[1+([Test]/IC50)^N]}*100% Where [Test] is the concentration of test article, IC50 is the concentration of the test article producing half-maximal inhibition, N is the Hill coefficient and % Block is the percentage of current inhibited at each concentration of the test article. Nonlinear least squares fits will be solved with the Solver add-in for Excel 2000 or later (Microsoft, Redmon, WA). TurboSol analysis for test compound solubility was performed for each concentration tested using a Nephelostar reader measuring light scatter from a 635 nm laser source. Based on validation experiments, light scatter above four times the background level was considered an indication of the presence of particles in suspension.
Background: The hERG channel carries a current that helps repolarise heart muscle cells.

[3] abbreviates: GS-986 400 nM, 6 hours, Table 26.

Read-outs that look alike come from different tables or passages of the source.

cloned hERG potassium channel encoded by the KCNH2 gene, sequence (Q12809 whole entry): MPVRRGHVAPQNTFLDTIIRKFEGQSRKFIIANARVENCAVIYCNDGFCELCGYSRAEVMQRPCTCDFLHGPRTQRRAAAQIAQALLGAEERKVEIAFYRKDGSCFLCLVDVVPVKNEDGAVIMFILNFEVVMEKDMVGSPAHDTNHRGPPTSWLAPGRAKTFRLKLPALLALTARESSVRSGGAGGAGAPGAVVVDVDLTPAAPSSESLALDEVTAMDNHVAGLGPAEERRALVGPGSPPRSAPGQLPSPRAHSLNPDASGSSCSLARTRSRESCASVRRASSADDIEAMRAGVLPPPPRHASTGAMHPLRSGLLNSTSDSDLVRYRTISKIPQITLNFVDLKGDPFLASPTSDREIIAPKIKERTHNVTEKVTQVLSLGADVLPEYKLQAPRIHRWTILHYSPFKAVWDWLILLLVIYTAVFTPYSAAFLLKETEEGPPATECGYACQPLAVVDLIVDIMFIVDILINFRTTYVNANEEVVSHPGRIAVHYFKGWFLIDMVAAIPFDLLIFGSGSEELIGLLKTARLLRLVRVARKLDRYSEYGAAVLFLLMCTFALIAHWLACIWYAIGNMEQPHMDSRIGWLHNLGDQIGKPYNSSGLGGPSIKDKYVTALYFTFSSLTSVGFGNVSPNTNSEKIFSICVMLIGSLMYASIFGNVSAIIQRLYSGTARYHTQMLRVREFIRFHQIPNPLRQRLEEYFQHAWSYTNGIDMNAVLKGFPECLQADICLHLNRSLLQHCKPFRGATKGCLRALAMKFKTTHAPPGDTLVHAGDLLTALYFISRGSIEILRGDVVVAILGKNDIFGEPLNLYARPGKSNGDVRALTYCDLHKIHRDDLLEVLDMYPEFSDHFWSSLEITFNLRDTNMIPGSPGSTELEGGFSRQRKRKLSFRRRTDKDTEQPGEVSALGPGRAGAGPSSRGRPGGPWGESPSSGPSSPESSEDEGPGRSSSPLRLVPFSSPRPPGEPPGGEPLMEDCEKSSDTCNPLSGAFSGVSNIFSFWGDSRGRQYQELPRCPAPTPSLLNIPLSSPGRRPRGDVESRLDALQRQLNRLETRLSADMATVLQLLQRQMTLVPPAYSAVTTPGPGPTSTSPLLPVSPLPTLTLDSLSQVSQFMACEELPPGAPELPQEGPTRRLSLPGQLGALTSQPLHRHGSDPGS

As a reminder, the EC50 is the midpoint of the concentration-response curve. Regarding `Cc1cc(-c2[nH]c3cc(C4CCNCC4)ccc3c2C)cc(C)n1` [Example 48, 2-(2,6-dimethylpyridin-4-yl)-3-methyl-6-(piperidin-4-yl)-1H-indole], the EC50 in assay [1] (setting [3]) was determined as 692 nM. As for `Cc1cc(-c2[nH]c3cc(-c4ccc(N5CCNCC5)nc4)ccc3c2C2CC2)cn(C)c1=O` [Example 165], the EC50 in assay [1] (setting [3]) was 0.33 nM. Same read-out and setting: the value for `Cc1cc(-c2[nH]c3cc(-c4ccc(N5CCN(CCO)CC5)nc4)ccc3c2C)cc(C)n1` [Example 37, 2-(4-(5-(2-(2,6-dimethylpyridin-4-yl)-3-methyl-1H-indol-6-yl)pyridin-2-yl)piperazin-1-yl)ethan-1-ol] was 17.3 nM; that for `Cc1cc(-c2[nH]c3cc(C4CCNCC4)ccc3c2C(C)C)cn2ncnc12` [Example 55] was 4.8 nM; that for `Cc1c(-c2cc(C)c3ncnn3c2)[nH]c2cc(-c3ccc(N4CCNCC4)nc3)ccc12` [Example 71] was 1.2 nM.

On to `CCc1c(-c2cc(OC)c3ncnn3c2)[nH]c2cc(-c3ccc(N4CCNCC4)nc3)ccc12` [Example 169], for which the EC50 in assay [1] (setting [3]) was 0.13 nM.

For orientation: IC50 means the concentration that gives 50% inhibition. Low readings indicate greater potency, high ones weaker potency. As to `Cc1cc(-c2[nH]c3cc(-c4ccc(N5CCNCC5)nc4)ccc3c2C)cc(C)n1` [Example 1, 2-(2,6-dimethylpyridin-4-yl)-3-methyl-6-(6-(piperazin-1-yl)pyridin-3-yl)-1H-indole], the IC50 in assay [2] was ≥ 30000 nM. The EC50 in assay [1] (setting [3]) came out at 18.1 nM.

`Cc1cc(-c2[nH]c3cc(C4CCCNC4)ccc3c2C)cc(C)n1` (stereo not drawn) [Example 53] had an IC50 in assay [2] of 19600 nM. In addition, the EC50 in assay [1] (setting [3]) and in assay [1] (Table 27 comparison) was > 1000 nM each time. In the case of `CCc1c(-c2cc(C)c3ncnn3c2)[nH]c2cc(-c3ccc(N4CCNCC4)nc3)ccc12` [Example 167, 6-(3-ethyl-6-(6-(piperazin-1-yl)pyridin-3-yl)-1H-indol-2-yl)-8-methyl-[1,2,4]triazolo[1,5-a]pyridine], the EC50 in assay [1] (setting [3]) was 0.17 nM.
